inhibition, IC50 and CI data for one compound are collected here from ChEMBL document CHEMBL5346903, “Discovery of novel and bioavailable histone deacetylases and cyclin-dependent kinases dual inhibitor to impair the stemness of leukemia cells” (Eur J Med Chem, 2023).

For assay [1], the target named is CDK1/Cyclin E (Homo sapiens) (UniProt P06493+P24864). In words: Inhibition of CDK1/cyclinE1 (unknown origin) at 100 nM preincubated for 20 mins followed by [gamma-33P]ATP addition measured after 120 mins in presence of ATP by Hot-SpotSM kinase assay relative to control. Type of assay: protein-complex assay. To be noted: time 140.0 min.
Assay [2] relates to HL-60. The experiment in a line: Antiproliferative activity against human HL-60 cells incubated for 72 hrs by CCK8 assay. Type of assay: functional, cell-based. To be noted: HL-60, 72 h. (Tetrazolium dyes change colour on reduction, which living cells bring about.)
Assay [3] has as its target Cyclin-dependent kinase 4/cyclin D1 (Homo sapiens) (UniProt P11802+P24385). The experiment in a line: Inhibition of CDK4/cyclinD1 (unknown origin) at 100 nM preincubated for 20 mins followed by [gamma-33P]ATP addition measured after 120 mins in presence of ATP by Hot-SpotSM kinase assay relative to control. The following applies: time 140.0 min. The assay is classed as protein-complex assay.

The subject of assay [4] is U-937. In words: Antiproliferative activity against human U-937 cells incubated for 72 hrs by CCK8 assay. Type of assay: functional, cell-based. The following applies: U-937, 72 h.
In assay [5] the target is CDK6/cyclin D1 (Homo sapiens) (UniProt P24385+Q00534). The experiment in a line: Inhibition of CDK6/cyclinD1 (unknown origin) at 100 nM preincubated for 20 mins followed by [gamma-33P]ATP addition measured after 120 mins in presence of ATP by Hot-SpotSM kinase assay relative to control. To be noted: time 140.0 min. The assay is classed as protein-complex assay.
Assay [6] concerns the target CDK12/Cyclin K (Homo sapiens) (UniProt O75909+Q9NYV4). In words: Inhibition of CDK12/cyclinK (unknown origin) at 100 nM preincubated for 20 mins followed by [gamma-33P]ATP addition measured after 120 mins in presence of ATP by Hot-SpotSM kinase assay relative to control. The following applies: time 140.0 min. Type of assay: protein-complex assay.
In assay [7] the target is Cyclin-C/Cyclin-dependent kinase 19 (Homo sapiens) (UniProt Q9BWU1+P24863). In words: Inhibition of CDK19/cyclinC (unknown origin) at 100 nM preincubated for 20 mins followed by [gamma-33P]ATP addition measured after 120 mins in presence of ATP by Hot-SpotSM kinase assay relative to control. Type of assay: protein-complex assay. The following applies: time 140.0 min.
Assay [8] concerns the target T1, Cyclin-dependent kinase 5/CDK5 activator 1 (Homo sapiens) (UniProt Q00535+Q15078). In words: Inhibition of CDK5/p35NCK (unknown origin) at 100 nM preincubated for 20 mins followed by [gamma-33P]ATP addition measured after 120 mins in presence of ATP by Hot-SpotSM kinase assay relative to control. To be noted: time 140.0 min. The assay is classed as protein-complex assay.

In assay [9] the target is T1, Cyclin-dependent kinase 5/CDK5 activator 1 (Homo sapiens). The experiment in a line: Inhibition of CDK5/p25NCK (unknown origin) at 100 nM preincubated for 20 mins followed by [gamma-33P]ATP addition measured after 120 mins in presence of ATP by Hot-SpotSM kinase assay relative to control. Type of assay: protein-complex assay. The following applies: time 140.0 min.
Assay [10] addresses Cyclin-dependent kinase 1/cyclin B1 (Homo sapiens) (UniProt P06493+P14635). The experiment in a line: Inhibition of CDK1/cyclinB1 (unknown origin) at 100 nM preincubated for 20 mins followed by [gamma-33P]ATP addition measured after 120 mins in presence of ATP by Hot-SpotSM kinase assay relative to control. To be noted: time 140.0 min. The assay is classed as protein-complex assay.

Assay [11] deals with Kasumi 1. The experiment in a line: Synergistic antiproliferative activity against human Kasumi 1 cells assessed as combination index incubated for 72 hrs in presence of Chidamide by CCK-8 assay. The assay is classed as functional.
For assay [12], the target named is CDK1/Cyclin A (Homo sapiens) (UniProt P06493+P20248). In words: Inhibition of CDK1/cyclinA2 (unknown origin) at 100 nM preincubated for 20 mins followed by [gamma-33P]ATP addition measured after 120 mins in presence of ATP by Hot-SpotSM kinase assay relative to control. The assay is classed as protein-complex assay. To be noted: time 140.0 min.
In assay [13] the target is CDK6/cyclin D3 (Homo sapiens) (UniProt P30281+Q00534). The experiment in a line: Inhibition of CDK6/cyclinD3 (unknown origin) at 100 nM preincubated for 20 mins followed by [gamma-33P]ATP addition measured after 120 mins in presence of ATP by Hot-SpotSM kinase assay relative to control. Type of assay: protein-complex assay. To be noted: time 140.0 min.
Assay [14] in a line: Antiproliferative activity against human SKNO-1 cells incubated for 72 hrs by CCK8 assay. Type of assay: functional, cell-based. The following applies: SKNO-1, 72 h.
In assay [15] the test system is Kasumi 1. In words: Antiproliferative activity against human Kasumi 1 cells incubated for 72 hrs by CCK8 assay. The following applies: Kasumi 1, 72 h. Type of assay: functional, cell-based.
The target of assay [16] is Cyclin-dependent kinase 13/Cyclin-K (Homo sapiens) (UniProt Q14004+O75909). The experiment in a line: Inhibition of CDK13/cyclinK (unknown origin) at 100 nM preincubated for 20 mins followed by [gamma-33P]ATP addition measured after 120 mins in presence of ATP by Hot-SpotSM kinase assay relative to control. Type of assay: protein-complex assay. To be noted: time 140.0 min.

In assay [17] the target is CDK3/Cyclin E (Homo sapiens) (UniProt P24864+Q00526). In words: Inhibition of CDK3/cyclinE1 (unknown origin) at 100 nM preincubated for 20 mins followed by [gamma-33P]ATP addition measured after 120 mins in presence of ATP by Hot-SpotSM kinase assay relative to control. Type of assay: protein-complex assay. To be noted: time 140.0 min.
Assay [18] concerns the target CDK4/Cyclin D3 (Homo sapiens) (UniProt P11802+P30281). The experiment in a line: Inhibition of CDK4/cyclinD3 (unknown origin) at 100 nM preincubated for 20 mins followed by [gamma-33P]ATP addition measured after 120 mins in presence of ATP by Hot-SpotSM kinase assay relative to control. The assay is classed as protein-complex assay. The following applies: time 140.0 min.

T1 sequence (Q00535 whole entry): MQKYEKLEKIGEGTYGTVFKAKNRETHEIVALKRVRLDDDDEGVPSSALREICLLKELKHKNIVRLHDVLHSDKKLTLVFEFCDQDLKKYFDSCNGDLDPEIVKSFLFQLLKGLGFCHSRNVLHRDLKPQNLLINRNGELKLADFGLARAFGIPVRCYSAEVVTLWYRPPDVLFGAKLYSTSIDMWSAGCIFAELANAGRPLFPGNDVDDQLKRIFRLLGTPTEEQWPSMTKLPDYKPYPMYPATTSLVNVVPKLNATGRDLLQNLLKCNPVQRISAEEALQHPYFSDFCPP
T1 sequence (Q15078 99-307 partner limits assumed): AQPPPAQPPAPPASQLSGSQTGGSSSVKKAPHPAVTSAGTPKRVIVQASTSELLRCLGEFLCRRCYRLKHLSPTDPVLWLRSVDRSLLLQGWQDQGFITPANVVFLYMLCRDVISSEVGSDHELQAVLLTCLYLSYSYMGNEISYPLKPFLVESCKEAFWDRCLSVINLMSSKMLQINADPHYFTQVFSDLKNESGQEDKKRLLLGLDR
Cyclin-dependent kinase 13/Cyclin-K (Homo sapiens), sequence (O75909 whole entry, looked up): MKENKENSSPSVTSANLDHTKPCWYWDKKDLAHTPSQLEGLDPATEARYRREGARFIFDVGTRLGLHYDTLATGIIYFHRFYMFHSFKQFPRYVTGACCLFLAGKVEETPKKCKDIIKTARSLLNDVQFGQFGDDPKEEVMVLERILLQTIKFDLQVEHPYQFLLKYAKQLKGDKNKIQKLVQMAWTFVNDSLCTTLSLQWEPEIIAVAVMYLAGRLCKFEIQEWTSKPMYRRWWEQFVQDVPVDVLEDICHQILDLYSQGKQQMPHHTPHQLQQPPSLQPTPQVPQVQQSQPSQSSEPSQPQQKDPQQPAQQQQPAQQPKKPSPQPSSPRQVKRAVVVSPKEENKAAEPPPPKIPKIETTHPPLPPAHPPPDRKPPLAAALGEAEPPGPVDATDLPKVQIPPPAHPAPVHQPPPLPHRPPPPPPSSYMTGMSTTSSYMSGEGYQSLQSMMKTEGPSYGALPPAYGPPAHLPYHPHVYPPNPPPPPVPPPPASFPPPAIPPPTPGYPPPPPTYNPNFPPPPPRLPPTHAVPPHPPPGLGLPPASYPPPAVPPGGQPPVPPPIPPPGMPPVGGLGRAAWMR
Cyclin-dependent kinase 13/Cyclin-K (Homo sapiens), sequence (Q14004 whole entry, looked up): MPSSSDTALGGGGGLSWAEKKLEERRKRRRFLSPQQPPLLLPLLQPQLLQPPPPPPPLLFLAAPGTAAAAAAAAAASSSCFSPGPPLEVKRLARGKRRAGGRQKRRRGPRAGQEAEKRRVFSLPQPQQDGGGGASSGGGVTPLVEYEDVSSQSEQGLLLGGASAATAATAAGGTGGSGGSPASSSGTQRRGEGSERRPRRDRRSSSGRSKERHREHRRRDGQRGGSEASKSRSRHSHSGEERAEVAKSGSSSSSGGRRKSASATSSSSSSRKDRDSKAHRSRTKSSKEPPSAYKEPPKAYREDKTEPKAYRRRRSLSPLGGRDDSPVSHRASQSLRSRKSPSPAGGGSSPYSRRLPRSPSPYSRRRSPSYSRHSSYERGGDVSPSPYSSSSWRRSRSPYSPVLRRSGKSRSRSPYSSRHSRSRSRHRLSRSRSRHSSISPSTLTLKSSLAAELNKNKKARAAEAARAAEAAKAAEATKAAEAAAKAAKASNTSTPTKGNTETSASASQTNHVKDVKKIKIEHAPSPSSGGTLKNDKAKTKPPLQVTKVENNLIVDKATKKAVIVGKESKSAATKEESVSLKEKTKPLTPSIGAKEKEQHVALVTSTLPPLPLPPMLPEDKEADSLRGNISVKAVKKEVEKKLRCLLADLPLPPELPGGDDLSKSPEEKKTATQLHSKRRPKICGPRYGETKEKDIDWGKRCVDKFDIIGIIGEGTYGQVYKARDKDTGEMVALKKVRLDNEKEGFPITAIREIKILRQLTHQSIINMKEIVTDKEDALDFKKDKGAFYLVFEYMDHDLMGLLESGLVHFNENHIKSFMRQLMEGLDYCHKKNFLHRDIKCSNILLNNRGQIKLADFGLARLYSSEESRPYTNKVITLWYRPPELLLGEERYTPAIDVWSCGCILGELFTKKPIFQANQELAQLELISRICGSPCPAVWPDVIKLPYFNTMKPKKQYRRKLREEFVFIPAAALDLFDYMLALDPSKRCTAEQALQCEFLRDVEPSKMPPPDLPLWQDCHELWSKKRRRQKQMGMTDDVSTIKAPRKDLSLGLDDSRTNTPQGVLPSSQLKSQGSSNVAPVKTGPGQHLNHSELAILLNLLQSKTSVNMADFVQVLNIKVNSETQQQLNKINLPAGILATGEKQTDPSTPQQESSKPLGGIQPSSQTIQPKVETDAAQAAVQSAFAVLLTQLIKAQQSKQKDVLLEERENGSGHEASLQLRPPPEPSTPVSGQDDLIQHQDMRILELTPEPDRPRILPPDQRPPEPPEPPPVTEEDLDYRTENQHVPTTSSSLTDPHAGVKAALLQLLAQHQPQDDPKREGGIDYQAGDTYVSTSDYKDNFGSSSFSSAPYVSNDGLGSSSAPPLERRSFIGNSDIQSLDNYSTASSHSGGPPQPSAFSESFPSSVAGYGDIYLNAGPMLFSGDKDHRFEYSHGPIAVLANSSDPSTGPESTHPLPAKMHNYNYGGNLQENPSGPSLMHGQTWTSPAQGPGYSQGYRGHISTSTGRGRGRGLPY
CDK12/Cyclin K (Homo sapiens), sequence (O75909 whole entry, looked up): as the sequence (O75909 whole entry, looked up) above
CDK12/Cyclin K (Homo sapiens), sequence (Q9NYV4 whole entry, looked up): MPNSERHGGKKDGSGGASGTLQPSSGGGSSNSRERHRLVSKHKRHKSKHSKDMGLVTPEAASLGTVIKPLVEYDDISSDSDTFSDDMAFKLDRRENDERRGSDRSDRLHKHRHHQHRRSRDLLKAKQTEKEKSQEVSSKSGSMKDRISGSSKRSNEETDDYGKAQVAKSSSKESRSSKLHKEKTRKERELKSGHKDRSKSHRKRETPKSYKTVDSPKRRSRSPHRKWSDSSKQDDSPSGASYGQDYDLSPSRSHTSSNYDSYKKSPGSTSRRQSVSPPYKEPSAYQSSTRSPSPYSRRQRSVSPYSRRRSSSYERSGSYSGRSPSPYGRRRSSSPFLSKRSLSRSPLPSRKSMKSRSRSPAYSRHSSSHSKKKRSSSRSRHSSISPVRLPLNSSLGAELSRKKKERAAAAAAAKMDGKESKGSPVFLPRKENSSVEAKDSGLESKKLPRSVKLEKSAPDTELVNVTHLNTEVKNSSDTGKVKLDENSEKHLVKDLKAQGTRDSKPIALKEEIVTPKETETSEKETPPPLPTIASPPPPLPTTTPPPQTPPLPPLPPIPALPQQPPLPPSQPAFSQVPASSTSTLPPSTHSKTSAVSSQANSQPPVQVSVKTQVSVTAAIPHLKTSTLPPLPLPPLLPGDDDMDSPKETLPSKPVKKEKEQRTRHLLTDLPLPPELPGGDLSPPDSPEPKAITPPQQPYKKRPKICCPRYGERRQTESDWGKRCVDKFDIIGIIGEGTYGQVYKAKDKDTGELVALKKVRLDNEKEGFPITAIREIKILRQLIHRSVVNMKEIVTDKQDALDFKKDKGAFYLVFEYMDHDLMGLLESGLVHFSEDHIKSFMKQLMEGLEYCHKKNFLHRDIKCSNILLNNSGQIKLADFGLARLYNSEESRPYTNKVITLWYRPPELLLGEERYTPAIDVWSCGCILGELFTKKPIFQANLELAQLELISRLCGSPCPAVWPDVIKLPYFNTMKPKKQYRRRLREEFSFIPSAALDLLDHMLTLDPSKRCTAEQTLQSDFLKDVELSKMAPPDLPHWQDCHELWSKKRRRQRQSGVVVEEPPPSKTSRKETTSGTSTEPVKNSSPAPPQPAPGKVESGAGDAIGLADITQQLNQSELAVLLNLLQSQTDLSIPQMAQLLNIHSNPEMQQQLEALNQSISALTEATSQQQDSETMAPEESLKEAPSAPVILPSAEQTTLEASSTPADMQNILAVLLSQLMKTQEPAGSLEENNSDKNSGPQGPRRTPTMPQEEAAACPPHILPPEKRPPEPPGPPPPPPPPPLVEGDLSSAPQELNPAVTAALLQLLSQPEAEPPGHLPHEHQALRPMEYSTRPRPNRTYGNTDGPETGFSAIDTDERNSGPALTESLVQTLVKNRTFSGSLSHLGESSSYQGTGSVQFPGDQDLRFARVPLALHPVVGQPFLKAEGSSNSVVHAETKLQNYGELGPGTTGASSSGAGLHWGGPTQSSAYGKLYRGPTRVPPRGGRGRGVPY
CDK3/Cyclin E (Homo sapiens), sequence (P24864 whole entry, looked up): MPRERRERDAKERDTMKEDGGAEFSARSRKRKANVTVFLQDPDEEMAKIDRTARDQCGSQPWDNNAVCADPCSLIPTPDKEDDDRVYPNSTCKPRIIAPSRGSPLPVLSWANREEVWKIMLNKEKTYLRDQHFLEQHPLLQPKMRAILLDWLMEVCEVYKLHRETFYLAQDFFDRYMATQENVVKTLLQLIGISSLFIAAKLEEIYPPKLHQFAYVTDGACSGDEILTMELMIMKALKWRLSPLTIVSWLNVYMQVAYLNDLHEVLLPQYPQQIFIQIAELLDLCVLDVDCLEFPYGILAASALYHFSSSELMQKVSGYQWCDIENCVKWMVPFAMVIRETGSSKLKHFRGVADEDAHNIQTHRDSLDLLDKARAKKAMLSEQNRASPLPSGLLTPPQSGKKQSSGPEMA
CDK3/Cyclin E (Homo sapiens), sequence (Q00526 whole entry, looked up): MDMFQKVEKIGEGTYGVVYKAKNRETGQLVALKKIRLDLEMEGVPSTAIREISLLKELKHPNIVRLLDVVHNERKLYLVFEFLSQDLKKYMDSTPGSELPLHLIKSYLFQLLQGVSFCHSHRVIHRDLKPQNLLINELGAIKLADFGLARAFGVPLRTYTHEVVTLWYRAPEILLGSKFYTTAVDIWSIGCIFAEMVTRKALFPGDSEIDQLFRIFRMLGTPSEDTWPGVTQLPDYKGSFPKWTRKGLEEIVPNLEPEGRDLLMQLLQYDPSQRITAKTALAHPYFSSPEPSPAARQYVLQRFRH

Broadly, the inhibition is the change of the read-out against control, counted positive when it falls. The IC50 is the concentration that gives 50% inhibition. For `O=C(NC1CCNCC1)c1n[nH]cc1NC(=O)c1c(Cl)cccc1Cl` [AT-7519], the inhibition in [1] was 31.4%; in [3] it was 68.7%; in [5], 56.8%; in assay [6], 85%; in [7], 6.49%; in [8], 62.5%. For the same compound, the inhibition in assay [9] stood at 76.9%; in assay [10], 39.3%; in assay [12] it was 24%; in assay [13], 33.2%; in [16] it was 87%; in [17], 26.5%. In addition, in [18], the inhibition worked out at 74.6%. The IC50 came to 2330 nM in assay [2], 1150 nM in assay [4], 1220 nM in assay [14] and 1480 nM in assay [15]. Also, the CI in assay [11] is given as <1.
